# Experiments:
# [1] = system: AhR; experiment: AhR activation in Caco-2 cells through CYP1A1 mRNA expression; settings: overnight
# Procedure: Caco-2 cells from American Type Culture Collection (ATCC) were plated in a sterile tissue culture treated 96-well plate (ThermoFisher) at […], and grown overnight at 37° C., 5% CO2 in DMEM complete (Gibco) in order to achieve confluence. After the incubation medium was aspirated off of the Caco-2 monolayers, tissues were then washed with 200 μL of warmed PBS solution, and subsequently 190 μL of pre-warmed growth medium was added to each well. Compounds of interest were diluted at a 20× concentration in growth medium containing 2% DMSO, and 10 μL of compound solutions were added to respective wells in triplicate. Compounds where incubated overnight at 37° C., 5% CO2. 2-(1′H-indole-3′-carbonyl)-thiazole-4-carboxylic acid methyl ester (ITE) was used as the positive control for AhR activation at 1 and 100 μM concentrations. At the end of the incubation, medium was aspirated off of the Caco-2 cells, and the cells washed with 100 μL of cold PBS solution. RNA was extracted via the TaqMan™ Gene Expression Cells-to-CT™ Kit (ThermoFisher) according to the manufacturers protocol. The QuantStudio 6 Flex (Applied Biosciences) was used to analyze mRNA levels of CYP1A1 using GAPDH as the endogenous control. TaqMan™ probe sets for both genes were acquired from ThermoFisher. Samples were run in triplicate and data was analyzed using the QuantStudio software and reported as linear (Table 1) and log 2(ΔΔCT) values. Statistical analysis was performed using a two-tailed t-test comparing CYP1A1 levels in the presence of each individual compound to the vehicle negative control.
# [2] = system: type II collagen arthritis; experiment: In vivo rheumatoid arthritis model (semi-established type II collagen arthritis); set-up: species or system Lewis rats; settings: 420 mg/kg PO BID, rats
# Procedure: A study was conducted to determine the efficacy of test articles dosed by the oral (PO) route for inhibition of the inflammation (paw swelling), cartilage destruction, and bone resorption that occurs in semi-established type II collagen arthritis in female Lewis rats. Rats (10 per group) were injected intradermally (ID) with porcine type II collagen to induce arthritis; one group of rats (4 per group) served as vehicle-treated naïve controls. […] Positive controls were treated PO, BID with the reference compound Tofacitinib citrate (10 mg/kg). The rats were euthanized for necropsy on study day 21 (animals #1-5 in each group, animals #1-2 in naïve group) or 22 (animals #6-10 in each group, animals #3-4 in naïve group). Efficacy evaluation was based on animal body weights (Table 9), daily ankle caliper measurements (FIG. 4), ankle diameter expressed as area under the curve (AUC) (Table 10), terminal hind paw weights (Table 11), histopathologic evaluation of hind paws (Ankle Inflammation score: Table 12, Ankle Pannus score: Table 13, Ankle Cartilage Damage score: Table 14, Ankle Bone Resorption score: Table 15, Ankle Periosteal Bone score: Table 16, Ankle Periosteal Bone Width: Table 17) and knees (Knee Inflammation score: Table 18, Knee Pannus score: Table 19, Knee Cartilage Damage score: Table 20, Knee Bone Resorption score: Table 21), and relative spleen to body weight ratio (Table 22). Terminal serum was analyzed by enzyme-linked immunosorbent assay (ELISA) for anti-type II collagen antibodies (IgG) (Table 23). […] Statistics were conducted using ordinary one-way ANOVA with Dunnett's multiple comparison correction in GraphPad Prism.
# [3] = system: naïve CD4+ T cells; experiment: Human regulatory T cell differentiation assay; format: cell-based; settings: 6 days
# Procedure: Peripheral blood mononuclear cells (PBMCs) from whole blood donated by health volunteers were separated by Ficoll-Paque gradient centrifugation and naïve CD4^+ T cells were subsequently isolated using magnet beads (EasySep™ Human Naïve CD4^+ T Cell Isolation Kit, Cambridge, MA). For regulatory T cell (Treg) differentiation assay, naïve CD4^+ T cells were cultured (1-10×10^4 cells) in CTS OpTmizer medium for 6 days and stimulated with 5 ng/ml TGF-β, 100 U/ml IL-2, and ImmunoCult™ Human […] T Cell Activator; Stemcell #10990) with/without our Compounds. Cell viability was determined using a viability dye (eBioscience Fixable Viability Dye eFluor 780: ThermoFisher 65-0865-14) at 1:500 dilution. The cells were gated for Treg, defined as Live, CD11c^−, CD14^−, CD19^−, CD8^−, CD4^+, CD3^+, CD25^+, FOXP3^+. Percent (%) Tregs were calculated as percentage of CD4^+, CD25^+, FOXP3^+ cells over total CD4 T cells. Statistical analysis was performed with GraphPad Prism Software Using One-Way ANOVA.
# [4] = system: neutrophil; experiment: Neutrophil chemokine production assay; format: cell-based, human; settings: 12 h
# Procedure: A volume 25 mL of human blood was layered over 15 mL of Histopaque®-1077 and centrifuged at 500 g, RT, for 30 min with no break applied to the centrifuge. The PBMC band and Histopaque®-1077 layer were removed leaving behind the bottom red layer which was mixed with 40 mL of 1× red blood cell (RBC) lysis buffer (Sigma-Aldrich) was and split into two 50 mL tubes. The volume for both fractions was brought to 50 mL with RBC lysis buffer, mixed by inversion, and then incubated at RT for 10 min. Solutions were centrifuged at 250 g, for 10 min at RT and the supernatant liquids removed. The reddish pellets were re-suspended in 1 mL of RBC lysis buffer and combined. The cell suspension was incubated for 5 min at RT in RBC lysis buffer. After incubation 45 mL of Hanks Balanced Salt Solution with no calcium, magnesium or phenol red (HBSS−) was added, the cell suspension was spun (250 g for 10 min at RT), and supernatant liquids were removed. The white pellet was re-suspended in 1 mL of HBSS−, and cell counts were determined. The neutrophil cell suspension was brought to a concentration of 1.11e6 cells/mL in RPMI complete (Sigma-Aldrich), and 180 μL of cell suspension was transferred to all wells within a sterile 96-well tissue culture treated plate resulting in 2.0e5 cells/well. […] After incubation, 10 μL of 2 μg/mL LPS solution in RPMI complete was added to each well except for control wells, which received an additional 10 μL of media. Cells were incubated for 12 h (37° C., 5% CO2), after which plates were centrifuged at 250 g, RT, for 5 min and supernatant liquids were obtained and stored at −80° C. until analyzed via Luminex® Multiplex Assay for various chemokines and cytokines. Three data points were acquired from two different blood donors and averaged.
# [5] = system: Primary Human Peripheral Blood Mononuclear Cells (PBMCs); experiment: Inflammatory signals in LPS-treated primary human PBMCs; format: cell-based; settings: 100 uM, 24 hours
# Procedure: Human donor blood (8 mL) was collected in sodium citrate CPT tubes and centrifuged at 1,600×g for 20 minutes at room temperature. Buffy coat containing PBMCs was collected and transferred to a 50 mL conical tube containing 30 mL of RPMI-1640 medium at room temperature (supplemented with penicillin-streptomycin). PBMCs samples were centrifuged at 400×g for 10 minutes at 10° C. The pelleted PBMCs were washed twice in 10 ml of RPMI-1640 medium (supplemented with penicillin-streptomycin), then resuspended in RPMI-1640 medium (supplemented with penicillin-streptomycin, fetal bovine serum, and L-Glutamine). PBMCs were filtered through a 70 micron mesh to remove any cellular debris. […] PBMCs in a 96-well plate were rested for 30 minutes in a 37° C., 5% CO2 incubator, then subsequently treated with 10 μl of indicated compound. After 2 hours 10 μL of LPS (O111:B4) 1 mg/mL was added to test wells. After 24 hours of incubation at 37° C., 5% CO2, 100 μL of cell supernatant was collected and transferred to a 96-well plate (non-tissue treated, flat bottom). The plate was centrifuged at 350×g for 5 minutes at room temperature, and then the clear supernatant transferred to a new 96-well plate (non-tissue treated, flat bottom). The remaining cells were tested for viability using CellTiter-Glo® Luminescent Cell Viability Assay (Promega). The supernatant was analyzed for TNFα, IL-6 and […] Systems), using Luminex Immunoassay Technology (MAGPIX System). Cytokine levels of LPS treated DMSO control samples were set to 100%, and compound treated samples were expressed relative to this (Table 3).
compound,measurement,setting,value
Cn1cc(C[C@H](N)C(=O)O)c2ccccc21 [1-methylindole-3-alanine],Average CYP1A1 mRNA levels,[1]; 10.0 μM,+ (+ = >2-fold Vehicle)
same,Average CYP1A1 mRNA levels,[1]; 100.0 μM,+++ (+++ = >10-fold Vehicle)
O=C(O)c1ccccc1 [Benzoic acid],Average CYP1A1 mRNA levels,[1]; 10.0 μM,+ (+ = >2-fold Vehicle)
same,Average CYP1A1 mRNA levels,[1]; 100.0 μM,+ (+ = >2-fold Vehicle)
"CCCC(=O)O [Butyric acid, reference compound]",Mean Ankle Diameter AUC (mm*day),[2],92.46 mm*day
same,Mean Ankle Periosteal Bone width (um),[2],573.30 um
same,Mean Knee Inflammation score (0-5),[2],4.83
same,Mean Terminal hind paw weights,[2],2.4759 g
same,"Mean body weight change, day −1 to 21 (%)",[2],−2.3%
same,Relative Spleen to Body Weight (Mean),[2],0.2416
same,Mean Ankle Bone Resorption score (0-5),"[2]; 0 = normal, 5 = severe",2.95
same,Mean Ankle Cartilage Damage score (0-5),"[2]; 0 = normal, 5 = severe",3.80
same,Mean Ankle Pannus score (0-5),"[2]; 0 = normal, 5 = severe",2.95
same,Mean Ankle Periosteal Bone score (0-5),"[2]; 0 = normal, 5 = severe",3.08
same,Mean Ankle inflammation score (0-5),"[2]; 0 = normal, 5 = severe",2.4759
same,Mean Knee Bone Resorption score (0-5),"[2]; 0 = normal, 5 = severe",2.43
same,Mean Knee Cartilage Damage score (0-5),"[2]; 0 = normal, 5 = severe",3.28
same,Mean Knee Pannus score (0-5),"[2]; 0 = normal, 5 = severe",2.43
same,Serum IgG,[2]; terminal serum ELISA for anti-type II collagen antibodies,5824.57 µg/mL
same,Cell viability % DMSO,[3]; 3 mM,− (<90%: −)
"COC(=O)c1csc(C(=O)c2c[nH]c3ccccc23)n1 [ITE, 2-(1′H-indole-3′-carbonyl)-thiazole-4-carboxylic acid methyl ester]",Average CYP1A1 mRNA levels,[1]; 1.0 μM,+++ (+++ = >10-fold Vehicle)
O=C[C@H](O)[C@@H](O)[C@@H](O)CO [L-arabinose],% IL-8 (Vehicle + LPS = 100%),[4]; 500.0 μM,− (− = >90% Vehicle)
same,% MIP-1α (Vehicle + LPS = 100%),[4]; 500.0 μM,− (− = >90% Vehicle)
same,% MIP-1β (DMSO + LPS = 100%),[4]; 500.0 μM,− (− = >90% Vehicle)
same,% IL-8 (Vehicle + LPS = 100%),[4]; 1000.0 μM,− (− = >90% Vehicle)
same,% MIP-1α (Vehicle + LPS = 100%),[4]; 1000.0 μM,− (− = >90% Vehicle)
same,% MIP-1β (DMSO + LPS = 100%),[4]; 1000.0 μM,− (− = >90% Vehicle)
same,IL1β % DMSO control,[5],= ((=) 90%> <110% DMSO)
same,IL6 % DMSO control,[5],+ ((+) 50%> <90% DMSO)
same,TNFα % of DMSO control,[5],+ ((+) 50%> <90% DMSO)
same,Cell viability % DMSO,[3]; 0.5 mM,= (90%> <110%: =)
same,Cell viability % DMSO,[3]; 1 mM,= (90%> <110%: =)
CC(O)CC(=O)[O-].[Na+] (centres unmarked) [Sodium BHB],Cell viability % DMSO,[3]; 2 mM,= (90%> <110%: =)
same,Treg induction % DMSO,[3]; 2 mM,+ (110%> <130%: +)
same,Cell viability % DMSO,[3]; 20 mM,− (<90%: −)
same,Treg induction % DMSO,[3]; 20 mM,= (90%> <110%: =)
"CC(O)CCO (centres unmarked) [butanediol, 1,3-butanediol]",% IL-8 (Vehicle + LPS = 100%),[4]; 100.0 μM,− (− = >90% Vehicle)
same,% MIP-1α (Vehicle + LPS = 100%),[4]; 100.0 μM,− (− = >90% Vehicle)
same,% MIP-1β (DMSO + LPS = 100%),[4]; 100.0 μM,+ (+ = <90% Vehicle)
same,% IL-8 (Vehicle + LPS = 100%),[4]; 500.0 μM,− (− = >90% Vehicle)
same,% MIP-1α (Vehicle + LPS = 100%),[4]; 500.0 μM,− (− = >90% Vehicle)
same,% MIP-1β (DMSO + LPS = 100%),[4]; 500.0 μM,+ (+ = <90% Vehicle)
same,IL1β % DMSO control,[5],= ((=) 90%> <110% DMSO)
same,Average CYP1A1 mRNA levels,[1]; 500.0 μM,− (- = <2-fold Vehicle)
OCc1c[nH]c2ccccc12 [indole-3-carbinol],Average CYP1A1 mRNA levels,[1]; 1000.0 μM,+ (+ = >2-fold Vehicle)
c1ccc2[nH]ccc2c1 [indole],Average CYP1A1 mRNA levels,[1]; 1000.0 μM,+ (+ = >2-fold Vehicle)
CCC(=O)O [propionate],% IL-8 (Vehicle + LPS = 100%),[4]; 500.0 μM,− (− = >90% Vehicle)
same,% MIP-1α (Vehicle + LPS = 100%),[4]; 500.0 μM,+++ (+++ = <50% Vehicle)
same,% MIP-1β (DMSO + LPS = 100%),[4]; 500.0 μM,+++ (+++ = <50% Vehicle)
same,% IL-8 (Vehicle + LPS = 100%),[4]; 1000.0 μM,++ (++ = <70%Vehicle)
same,% MIP-1α (Vehicle + LPS = 100%),[4]; 1000.0 μM,+++ (+++ = <50% Vehicle)
same,% MIP-1β (DMSO + LPS = 100%),[4]; 1000.0 μM,+++ (+++ = <50% Vehicle)
same,% IL-8 (Vehicle + LPS = 100%),[4]; 3000.0 μM,+++ (+++ = <50% Vehicle)
same,% MIP-1α (Vehicle + LPS = 100%),[4]; 3000.0 μM,+++ (+++ = <50% Vehicle)
same,% MIP-1β (DMSO + LPS = 100%),[4]; 3000.0 μM,+++ (+++ = <50% Vehicle)
same,IL1β % DMSO control,[5],+ ((+) 50%> <90% DMSO)
"O=c1c(O)c(-c2ccc(O)c(O)c2)oc2cc(O)cc(O)c12 [quercetin, reference compound]",% IL-8 (Vehicle + LPS = 100%),[4]; 0.1 μM,− (− = >90% Vehicle)
same,% MIP-1α (Vehicle + LPS = 100%),[4]; 0.1 μM,− (− = >90% Vehicle)
same,% MIP-1β (DMSO + LPS = 100%),[4]; 0.1 μM,− (− = >90% Vehicle)
same,% IL-8 (Vehicle + LPS = 100%),[4]; 1.0 μM,− (− = >90% Vehicle)
same,% MIP-1α (Vehicle + LPS = 100%),[4]; 1.0 μM,− (− = >90% Vehicle)
same,% MIP-1β (DMSO + LPS = 100%),[4]; 1.0 μM,− (− = >90% Vehicle)
same,IL1β % DMSO control,[5],+ ((+) 50%> <90% DMSO)
same,Cell viability % DMSO,[3]; 100 nM,= (90%> <110%: =)
same,Cell viability % DMSO,[3]; 1 uM,= (90%> <110%: =)

# Reference: patent US12115178B2, “Acylated active agents and methods of their use for the treatment of autoimmune disorders” (Flagship Pioneering Innovations V, Inc., priority 2018, dated 2024)
